Test [1] deals with T1, Prostaglandin D2 receptor 2 (Homo sapiens, UniProt Q9Y5Y4).
T1 sequence (Q9Y5Y4 whole entry): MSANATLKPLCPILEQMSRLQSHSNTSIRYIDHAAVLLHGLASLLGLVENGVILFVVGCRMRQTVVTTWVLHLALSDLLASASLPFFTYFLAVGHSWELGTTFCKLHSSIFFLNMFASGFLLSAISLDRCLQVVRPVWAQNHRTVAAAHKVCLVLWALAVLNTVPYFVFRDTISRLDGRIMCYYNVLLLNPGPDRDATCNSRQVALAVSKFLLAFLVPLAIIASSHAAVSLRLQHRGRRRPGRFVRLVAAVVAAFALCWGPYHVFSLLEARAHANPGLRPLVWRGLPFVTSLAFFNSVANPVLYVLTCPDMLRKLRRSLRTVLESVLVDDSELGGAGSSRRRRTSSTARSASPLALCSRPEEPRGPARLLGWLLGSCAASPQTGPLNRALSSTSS
Briefly: Displacement of [3H]PGD2 from human CRTH2 receptor expressed in HEK293 cells. It counts as cell-based. (In a radioligand displacement assay an active substance lowers the binding of a labelled ligand.)

The target of test [2] is T1, Prostaglandin D2 receptor 2. Briefly: Antagonist activity against CRTH2 receptor measured as inhibition of PGD2-induced beta-arrestin translocation in HEK293 cells by BRET assay. It counts as functional, cell-based. (In general: In BRET a luciferase serves as donor, and the signal depends on an acceptor being close.)
In test [3] the test system is Mus musculus. Briefly: Inhibition of peribronchial eosinophilia in BALB/c mouse at 100 mg/kg, po relative to control. It counts as functional.

These results are taken from ChEMBL document CHEMBL1137324, “Novel selective orally active CRTH2 antagonists for allergic inflammation developed from in silico derived hits” (J Med Chem, 2006).

Usually IC50 stands for the concentration that gives 50% inhibition. A low value points to higher potency. Turning to `O=Cc1cc(Br)ccc1OCC(=O)O`, the IC50 in test [1] turned out to be 124 nM; in test [2], 481 nM.

Take `O=C(O)COc1ccc(Br)cc1/C=N/Nc1nncc(-c2ccccc2)n1`: the IC50 in test [1] worked out at 89 nM; in test [2] it was 3210 nM.

As to `CCOC(=O)COc1ccc(Br)cc1C(=O)c1cnn(-c2ccccc2)c1`, the IC50 is 165 nM in test [1] and 3000 nM in test [2].

As for `O=C(O)COc1ccc(-c2ccccc2)cc1C(=O)c1cnn(-c2ccccc2)c1`, the 50% inhibitory concentration (IC50) in test [1] was 42 nM; in test [2], 485 nM.

In the case of `O=C(O)COc1ccc(Br)cc1/C=N/Nc1cccc2cccnc12`, the results for the IC50 in test [1] and in test [2] were 54 nM and 643 nM, respectively.

Broadly, the inhibition in vivo is the change of the read-out against control, counted positive when it falls. In turn, `C[C@]12CCC(=O)C=C1CC[C@@H]1[C@@H]2[C@@H](O)C[C@@]2(C)[C@H]1CC[C@]2(O)C(=O)CO` [HYDROCORTISONE] came in with an inhibition in vivo at 100 mg/kg in test [3] of 94%.

Consider `Cc1ccc(NCC(=O)N/N=C/c2ccccc2OCC(=O)O)cc1`, for which the concentration for half-maximal inhibition (IC50) was 3660 nM in test [1] and 60200 nM in test [2].

Regarding `Cc1ccc(OCC(=O)O)c(C(=O)c2cnn(-c3ccccc3)c2)c1`, the half-inhibitory concentration (IC50) in test [1] came out at 48 nM; in test [2], 587 nM.

On to `O=C(O)COc1ccc(F)cc1C(=O)c1cnn(-c2ccccc2)c1`, for which the results for the IC50 in test [1] and in test [2] were 108 nM and 1320 nM, respectively.

As to `O=C(O)COc1ccc([N+](=O)[O-])cc1C(=O)c1cnn(-c2ccccc2)c1`, the concentration for half-maximal inhibition (IC50) in test [1] was found to be 47 nM; in test [2] it was 236 nM.

In the case of `CC(=O)c1cc(Br)ccc1OCC(=O)O`, the IC50 in test [1] came out at 510 nM; in test [2], 4520 nM.

In the case of `O=C(O)COc1ccc(Br)cc1CO`, the IC50 in test [1] was determined as 886 nM; in test [2], 6870 nM.

For the molecule `O=C(O)COc1ccc(Br)cc1/C=N/Nc1ccccn1`, the IC50 in test [1] stood at 255 nM; in test [2], 3490 nM.

As for `O=C(O)COc1ccc(Cl)cc1C(=O)c1cnn(-c2ccccc2)c1`, the half-inhibitory concentration (IC50) in test [1] worked out at 15 nM; in test [2], 185 nM.

With `O=C(O)COc1ccc(-c2cc(F)cc(F)c2)cc1C(=O)c1cnn(-c2ccccc2)c1`, the 50% inhibitory concentration (IC50) in test [1] worked out at 13 nM; in test [2], 147 nM.

For `O=Cc1ccccc1OCC(=O)O`, the IC50 in test [1] was 1970 nM; in test [2], 50000 nM.

For the molecule `O=C(O)COc1ccc(-c2ccc(Cl)cc2)cc1C(=O)c1cnn(-c2ccccc2)c1`, the IC50 in test [1] is 37 nM; in test [2], 448 nM.

`Cc1cc(C(=O)N/N=C/c2ccccc2OCC(=O)O)[nH]n1`: the IC50 in test [1] was 11200 nM; in test [2], over 100000 nM.

With `CC(C)(C)c1cc(Br)ccc1OCC(=O)O`, the IC50 amounted to 61 nM in test [1] and 423 nM in test [2].

Consider `O=C(O)COc1ccc(Br)cc1C(=O)c1cnn(-c2ccccc2Br)c1`, for which the half-inhibitory concentration (IC50) is 1.9 nM in test [1] and 12 nM in test [2].

`COc1ccc(-c2cnnc(N/N=C/c3ccccc3OCC(=O)O)n2)cc1`: the results for the 50% inhibitory concentration (IC50) in test [1] and in test [2] were 1580 nM and over 100000 nM, respectively.

Regarding `O=C(O)COc1ccc(Br)cc1C(=O)c1ccno1`, the values for the IC50 in test [1] and in test [2] were 391 nM and 2650 nM, respectively.

Regarding `O=C(O)COc1ccc(Br)cc1C(=O)c1cnn(-c2cccc(Br)c2)c1`, the concentration for half-maximal inhibition (IC50) in test [1] was 3.4 nM; in test [2], 31 nM.

In the case of `O=C(O)COc1ccccc1C(=O)c1cnn(-c2ccccc2)c1`, the IC50 in test [1] is 510 nM; in test [2], 5350 nM.

In the case of `O=C(O)COc1ccccc1/C=N/NC(=O)COc1ccc(Cl)cc1Cl`, the IC50 worked out at 555 nM in test [1] and 6320 nM in test [2].

With `O=C(O)COc1ccc(Br)cc1C(=O)c1ccccc1`, the 50% inhibitory concentration (IC50) in test [1] was found to be 53 nM; in test [2], 437 nM.

Regarding `COc1ccc(OCC(=O)O)c(C(=O)c2cnn(-c3ccccc3)c2)c1`, the IC50 in test [1] is 151 nM; in test [2], 4200 nM.

In the case of `O=C(O)COc1ccc(Br)cc1C(=O)c1cnn(-c2ccc(Br)cc2)c1`, the IC50 in test [1] worked out at 1.4 nM; in test [2], 13 nM.

For the molecule `O=C(O)COc1ccc(Br)cc1C(=O)c1cnn(-c2ccc(Cl)cc2)c1`, the IC50 was 1.5 nM in test [1] and 17 nM in test [2].

Consider `COc1ccc(-n2cc(C(=O)c3cc(Br)ccc3OCC(=O)O)cn2)cc1`, for which the IC50 was determined as 3.6 nM in test [1] and 53 nM in test [2].

Turning to `O=C(O)COc1ccccc1/C=N/NC(=O)Cn1cnc2ccccc21`, the figures for the 50% inhibitory concentration (IC50) in test [1] and in test [2] were 12800 nM and 81700 nM, respectively.
